“And” between values parts separate entries of the source, which are not always exact repeats. Equal values may be shown once.
Assays:
Estrogen receptor beta [1] = molecular target: T1, Estrogen receptor beta (Homo sapiens, UniProt Q92731); assay: Antagonist effect on transcriptional activation in HEC-1 cells expressing Estrogen receptor beta at 10e-6 M against 10e-9 M estradiol; format: functional, cell-based
Estrogen receptor beta [2] = molecular target: T1, Estrogen receptor beta
Estrogen receptor = molecular target: T2, Estrogen receptor (Homo sapiens, UniProt P03372)
T2 sequence (P03372 whole entry): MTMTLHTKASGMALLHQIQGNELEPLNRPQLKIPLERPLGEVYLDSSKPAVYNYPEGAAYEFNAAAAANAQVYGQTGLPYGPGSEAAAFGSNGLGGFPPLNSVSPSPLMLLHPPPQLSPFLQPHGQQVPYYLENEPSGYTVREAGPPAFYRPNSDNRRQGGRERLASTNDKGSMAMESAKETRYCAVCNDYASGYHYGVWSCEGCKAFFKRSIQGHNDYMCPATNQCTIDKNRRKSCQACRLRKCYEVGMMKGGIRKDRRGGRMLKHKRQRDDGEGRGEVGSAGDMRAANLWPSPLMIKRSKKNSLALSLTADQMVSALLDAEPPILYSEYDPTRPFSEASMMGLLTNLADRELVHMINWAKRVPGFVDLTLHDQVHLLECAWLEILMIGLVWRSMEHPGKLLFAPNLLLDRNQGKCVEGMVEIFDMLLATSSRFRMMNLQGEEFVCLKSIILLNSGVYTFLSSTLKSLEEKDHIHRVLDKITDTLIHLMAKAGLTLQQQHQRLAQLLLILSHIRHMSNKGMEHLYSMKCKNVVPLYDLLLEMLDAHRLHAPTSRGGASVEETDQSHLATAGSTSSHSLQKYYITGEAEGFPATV

Estrogen receptor beta [3] = molecular target: T1, Estrogen receptor beta; assay: Agonist effect on transcriptional activation in HEC-1 cells expressing Estrogen receptor beta at 10e-8 M; format: functional, cell-based

T1 sequence (Q92731 whole entry): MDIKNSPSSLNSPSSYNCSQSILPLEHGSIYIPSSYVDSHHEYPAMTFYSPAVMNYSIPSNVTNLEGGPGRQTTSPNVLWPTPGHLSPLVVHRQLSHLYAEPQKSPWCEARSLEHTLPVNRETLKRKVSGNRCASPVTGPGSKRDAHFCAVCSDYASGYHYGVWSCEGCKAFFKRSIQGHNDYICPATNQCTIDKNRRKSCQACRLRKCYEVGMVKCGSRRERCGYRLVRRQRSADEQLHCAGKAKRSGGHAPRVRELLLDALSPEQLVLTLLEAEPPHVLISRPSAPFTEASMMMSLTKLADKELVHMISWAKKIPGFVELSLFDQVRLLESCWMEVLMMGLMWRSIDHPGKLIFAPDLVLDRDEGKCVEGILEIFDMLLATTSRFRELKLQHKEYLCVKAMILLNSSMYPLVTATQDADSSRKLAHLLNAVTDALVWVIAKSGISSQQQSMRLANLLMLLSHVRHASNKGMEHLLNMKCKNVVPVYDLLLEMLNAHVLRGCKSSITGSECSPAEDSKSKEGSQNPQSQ

Efficacy (Estrogen receptor beta [1])	Ki (Estrogen receptor beta [2])	Ki (Estrogen receptor)	Efficacy (Estrogen receptor beta [3])	SMILES
53%	1.7 nM	1.1 nM	2.6% and 24%	O/N=C/c1ccc(-c2ccccc2)c(-c2ccccc2)c1O
85%	0.048 nM	0.47 nM	0.94% and 4.9%	CCNc1c(/C=N/O)ccc(-c2ccccc2)c1-c1ccccc1
69%	0.27 nM	0.15 nM	1.3% and 20%	O/N=C/c1ccc(-c2ccccc2)c(-c2ccccc2)c1
71%	5.2 nM	3.7 nM	1.1% and 22%	CNc1c(/C=N/O)ccc(-c2ccccc2)c1-c1ccccc1
31%	2.8 nM	2.2 nM	6% and 23%	Nc1c(/C=N/O)ccc(-c2ccccc2)c1-c1ccccc1
